The source of these data is paper PMC8482806, “A Novel Blood-Brain Barrier-Permeable Chemotherapeutic Agent for the Treatment of Glioblastoma” (Cureus, 2021).

A short description of data set [1]: Cytotoxicity in normal human astrocytes (CellTiter-Glo). Type of data set: cell-based. Conditions: normal human astrocytes (NHA), read-out: LC50.
For the next data set, the target named is T1, hLAT1 (Homo sapiens, UniProt Q01650).
T1 construct: host or cells: LLC-PK1 (tetracycline-inducible, Invitrogen Gateway pT-REx System)
Description: Substrate transport inhibition, [3H]-gabapentin uptake in LLC-PK1 cells expressing hLAT1. The format is cell-based. The procedure: (§1) Substrate transport inhibition studies were conducted with LLC-PK1 cells inducibly expressing either hLAT1 or hLAT2. Cells were plated in growth media with 1 μg/mL doxycycline at 30,000 cells/well in 96-well plates. Sixteen hours after plating, cells were treated with butyrate at a final concentration of 5 mM. The following day, cells were washed with PBS and incubated in the presence or absence of various concentrations of QBS10072S with 30,000 cpm/well of either [3H]-gabapentin (LAT1) or [3H]-leucine (LAT2) in PBS for 15 minutes at room temperature. The non-specific cell-bound activity was determined by the addition of 5 mM unlabeled gabapentin (LAT1) or leucine (LAT2). Unincorporated radioactivity was removed, and cells were washed three times with ice-cold PBS. Cells were lysed by adding scintillation fluid to each well, and cell-associated radioactivity was determined via scintillation counting using a multichannel 96-well plate reader (MicroBeta Trilux, Perkin Elmer, Waltham, MA). Data were expressed as the percent of specific radioactivity uptake in wells with no compound added. LC50s were determined by non-linear curve-fitting using GraphPad Prism (San Diego, CA).

The target of a further data set is T2, hLAT2 (Homo sapiens, UniProt Q9UHI5).
T2 construct: host or cells: LLC-PK1 (tetracycline-inducible, Invitrogen Gateway pT-REx System)
T2 sequence (Q9UHI5 1-535): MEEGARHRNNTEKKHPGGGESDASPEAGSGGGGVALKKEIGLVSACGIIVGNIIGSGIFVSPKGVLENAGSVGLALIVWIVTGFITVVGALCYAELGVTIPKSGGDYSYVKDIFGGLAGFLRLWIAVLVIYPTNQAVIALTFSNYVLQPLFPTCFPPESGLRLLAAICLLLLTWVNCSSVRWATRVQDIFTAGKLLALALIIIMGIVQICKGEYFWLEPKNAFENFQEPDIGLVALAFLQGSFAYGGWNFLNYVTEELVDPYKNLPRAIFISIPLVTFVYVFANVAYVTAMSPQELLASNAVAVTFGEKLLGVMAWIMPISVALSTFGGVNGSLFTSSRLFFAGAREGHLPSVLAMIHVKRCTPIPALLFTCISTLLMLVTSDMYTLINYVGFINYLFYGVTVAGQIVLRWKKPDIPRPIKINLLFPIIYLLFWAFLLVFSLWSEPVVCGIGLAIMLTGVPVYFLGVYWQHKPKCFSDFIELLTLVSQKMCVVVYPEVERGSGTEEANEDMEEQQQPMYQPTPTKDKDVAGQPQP
T2 sequence (P08195 1-529 partner): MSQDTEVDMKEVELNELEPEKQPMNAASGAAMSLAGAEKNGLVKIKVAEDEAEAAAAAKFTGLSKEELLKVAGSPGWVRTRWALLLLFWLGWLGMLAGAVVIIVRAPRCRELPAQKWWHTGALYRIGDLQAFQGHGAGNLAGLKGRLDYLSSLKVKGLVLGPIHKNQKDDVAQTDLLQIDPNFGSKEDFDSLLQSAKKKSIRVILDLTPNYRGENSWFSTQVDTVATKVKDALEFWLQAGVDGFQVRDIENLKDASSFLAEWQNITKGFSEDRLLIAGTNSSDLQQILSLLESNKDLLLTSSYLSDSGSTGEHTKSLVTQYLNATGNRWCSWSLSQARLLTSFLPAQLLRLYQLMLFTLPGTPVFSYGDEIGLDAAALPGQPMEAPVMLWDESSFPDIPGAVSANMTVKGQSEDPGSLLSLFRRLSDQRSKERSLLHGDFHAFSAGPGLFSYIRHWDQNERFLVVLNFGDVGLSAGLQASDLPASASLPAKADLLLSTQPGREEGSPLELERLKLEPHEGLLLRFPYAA
Nature of the data set: Substrate transport inhibition, [3H]-leucine uptake in LLC-PK1 cells expressing hLAT2. The format is cell-based. The procedure: as §1

The subject of another data set is U87-MGMT cells. Description: WST1 cell viability assay, U87-MGMT. The format is cell-based. The following applies: Homo sapiens; U87-MGMT; QBS10072S 1 hour in PBS, TMZ 2 days, read day 7; read-out: LC50 (μM ± SD). The procedure:
(§2) In vitro activities of QBS10072S and temozolomide (TMZ) in U87 and U87-MGMT cells were assessed using the WST1 cell viability assay in 96-well plates in which 500/well of cells were plated in sextuplets for each condition. To avoid cell loss, the following washing and medium removing procedures were all done using a P200 pipet without vacuum aspiration. For QBS10072S treatment, cells were washed with PBS the next day and incubated with 50 μL of various concentrations of QBS10072S in PBS for 1 hour at 37°C. After incubation, 150 μL of growth medium was added to each well. The medium was subsequently changed every two days until day 7. For TMZ treatment, cells were treated with 100 μL of various concentrations of TMZ in a growth medium for 2 days. After incubation, cells were put back in a normal growth medium and continued culturing for five days. In the end, 10 μL of WST1 reagent was added to each well and incubated at 37°C for 4h before subjecting to plate reading at 450 nm and 690nm using an EnSpire multimode plate reader (PerkinElmer). Background (OD690nm) was subtracted and data were normalized to the control. LC50s were determined by non-linear regression using GraphPad Prism (GraphPad Software Inc., San Diego, California)

The test system of data set [2] is U251 intracerebral human GBM xenograft. Nature of the data set: U251 intracerebral human GBM xenograft in athymic mice (BLI, survival). The format is in vivo, mouse. Conditions: temozolomide 4 mg/kg oral gavage daily for 5 days plus RT 1.5 Gy daily for 5 days; vehicle 35. The procedure: Five-week-old female athymic mice (nu/nu, homozygous: Simonsen Laboratories, Gilroy, CA), housed under aseptic conditions, received intracranial tumor cell injection as previously described and as approved by the University of California San Francisco Institutional Animal Care and Use Committee, Protocol #: AN111064-03. Briefly, mice were anesthetized by intraperitoneal injection of ketamine (100 mg/kg) and xylazine (10 mg/kg) and injected with 3 μL of tumor cell suspension (300,000 cells total) into the right caudate-putamen. Coordinates: 3 mm to the right from bregma, on top of the coronal suture, and 3.5 mm depth. Injection rate: ~30 second/uL. For treatment studies, eight mice were used for each group for LN229 studies and nine mice per group for U251 studies. Treatments began when tumors entered the log-phase of growth as measured by luminescence, for the LN229 experiment on Day 21 and for U251 experiments on Day 14.
Dosing levels and frequency are described in the figure legends.
For bioluminescence imaging (BLI), mice were anesthetized as above, then administered 150 mg/kg of luciferin (D-luciferin potassium salt, Gold Biotechnology, St. Louis, MO) via intraperitoneal injection. Ten minutes after luciferin injection, mice were examined for tumor bioluminescence with an IVIS Lumina imaging station and Living Image software (Caliper Life Sciences, Alameda, CA), and regions of interest were recorded as photons per second per steradian per square cm.
Mice were anesthetized via inhalation of 2.5% isoflurane with 1 L of oxygen per minute for five minutes prior to being positioned on an irradiation platform located 16.3 cm from a cesium-137 source (JL Shepherd & Associates, San Fernando, CA). Eyes, respiratory tracts, and bodies were protected with lead shielding. Mice received whole-brain irradiation at a dose rate of 247 cGy/min until 1.5 Gy radiation had been administered. After irradiation, animals were monitored until recovery. Mice were irradiated once daily for five consecutive days. All mice received the first radiation dose when tumors were in a log-phase growth (Day 14) as determined by BLI.
Tumor-bearing mice were treated with temozolomide (TMZ) 4 mg/kg via oral gavage, starting on day 14 post U251 cell injection once daily for five days - concurrent therapy with RT. TMZ was obtained from the UCSF hospital pharmacy and formulated with the Ora-Plus suspending vehicle (Perrigo, Dublin, Ireland) with a working concentration of 1 mg/mL.

The test system of a further data set is U87 cells. Description: WST1 cell viability assay, U87. Conditions: Homo sapiens, U-87 MG; U87; QBS10072S 1 hour in PBS, TMZ 2 days, read day 7; read-out: LC50 (μM ± SD). The format is cell-based. The procedure: as §2

T1 sequence (Q01650 whole entry, one chain of several): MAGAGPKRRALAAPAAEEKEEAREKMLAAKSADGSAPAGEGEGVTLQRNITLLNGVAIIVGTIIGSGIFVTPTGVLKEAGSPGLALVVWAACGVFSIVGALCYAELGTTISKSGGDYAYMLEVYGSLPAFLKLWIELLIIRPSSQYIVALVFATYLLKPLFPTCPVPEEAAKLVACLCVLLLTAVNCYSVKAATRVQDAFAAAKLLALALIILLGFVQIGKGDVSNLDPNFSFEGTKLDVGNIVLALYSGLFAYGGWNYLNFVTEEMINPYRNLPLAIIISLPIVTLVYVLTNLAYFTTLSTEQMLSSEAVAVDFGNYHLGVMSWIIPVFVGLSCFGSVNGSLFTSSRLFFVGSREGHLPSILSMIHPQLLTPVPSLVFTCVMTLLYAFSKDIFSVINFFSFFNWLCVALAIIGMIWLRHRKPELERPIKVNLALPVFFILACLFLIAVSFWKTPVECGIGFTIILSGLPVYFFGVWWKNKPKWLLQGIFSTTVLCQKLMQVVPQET

For `N[C@@H](Cc1ccc(N(CCCl)CCCl)cc1)C(=O)O` [Melphalan, melphalan, reference compound], the CC50 at 30 min in data set [1] worked out at 0.86 µM. The IC50 came to 170 µM on hLAT1 and 390 µM against hLAT2.
On to `Cn1nnc2c(C(N)=O)ncn2c1=O` [TMZ, temozolomide, reference compound], for which the CC50 is > 200 µM with U87-MGMT cells and 82.3 ± 10.5 µM in the data set with U87 cells. In data set [2], the median survival time stood at 48 days.
